Test results: US20240051952A1, “HMOX1 INDUCERS” (Mitobridge Inc., priority 2019, published 2024)

System: Human Heme Oxygenase-1 (HMOX-1)
Assay: ELISA assay to measure human heme oxygenase-1 (HMOX-1) in HepG2 lysate
Format: cell-based
Details: fold change of human HMOX1 protein levels relative to DMSO control, HepG2
Procedure: Example 143. ELISA Assay to Measure Human Heme Oxygenase-1 (HMOX-1) in HepG2 lysate
Reagents and Technical Notes:
ELISA capture antibody, standard HO-1, detection antibody and streptavidin HRP were supplied in the DuoSet IC Human total HO-1 ELISA from R&D systems (DYC3776-2). The substrate cocktail was KPL LumiGLO reserve Chemiluminescent Substrate (54-71-00). PBS was Corning Cellgro Cell Culture (21-040-CV). 10×PBS+0.05% tween20 (PBST) was from KPL.
All incubations of the plate were at room temperature (20° C.) in a closed drawer.
The ELISA plate was processed manually. All loadings were with a multichannel pipet. Plates were emptied by shaking into the sink and tapping onto paper towels to remove any remaining reagent. Plate washing was accomplished by loading all wells with PBS+0.05% tween20 (PBST) using a squirt bottle, shaking the PBST out and tapping the plate onto paper towels.
Preparation of the ELISA Plate: • 1. anti-HO-1 capture antibody was 1440 μg/ml after reconstitution in PBS. This antibody was diluted to 8 μg/ml in PBS and 50 μl per well was added to a 384 well greiner “lumitrac 200” plate. Incubated overnight. • 2. The plate was emptied and 100 μl PBS+1% BSA added to all wells. Incubated 90 minutes at room temperature.
Preparation of HepG2 Lysate: • 1. Cells were cultured in a 96-well tissue culture plate washed with PBS and then the plate frozen at −70° C. overnight. Plates were allowed to warm to ice temperature in an ice bucket. 20 μl of PBS, 0.5% Triton X100, 1 mM EDTA with 1×HALT™ protease inhibitors was added to each well and the plates incubated on ice for 1 hour. • 2. The lysates were frozen at −20° C. overnight.
Measurement of HMOX1 (“HO-1”) • 1. In a polypropylene 384 well plate, human HO-1(after reconstitution in PBS+0.5% Triton+1 mM EDTA) was serially diluted from 20 ng/ml 2-fold in PBS+0.5% triton-X100, 1 mM EDTA to make a 12-point standard curve including a zero point. • 2. In a polypropylene 96 well plate, HepG2 lysate was diluted 1 to 20 in Diluent #4 from DUOSET kit in which the assay standard is also diluted. • 3. The PBS+1% BSA was emptied from the ELISA plate and 30 μl of all samples and standards were added (duplicates recommended). The plate was incubated 90 minutes. • 4. Emptied plate and washed 4 times with PBST. • 5. Diluted HO-1 detection antibody to 200 ng/ml in PBS+1% BSA and added 30 μl to all wells. Incubated 90 minutes. • 6. Emptied plate and washed 4 times with PBST. • 7. Added 30 μl streptavidin HRP at 1/200 in PBS+1% BSA (stock streptavidin concentration not specified) to all wells. Incubated 30 minutes. • 8. Emptied plate and washed 4 times with PBST. • 9. Diluted Lumiglo reserve reagent two parts buffer to one part lumiglo substrate. Added 30 μl to all wells. Incubated 5 minutes. • 10. Measured chemiluminescence on spectramax M5 using 150 ms integration.
Table 1 below lists EC50 and fold changes of human HMOX1 protein levels relative to DMSO control upon treatment with representative compounds.

| Maximum Fold induction | SMILES |
| --- | --- |
| 41 | Cn1c(Nc2nc3ccccc3o2)nc2cc(C(=O)NCCN3CCCC3)ccc21 [Example 28, 2-(benzo[d]oxazol-2-ylamino)-1-methyl-N-(2-(pyrrolidin-1-yl)ethyl)-1H-benzo[d]imidazole-5-carboxamide] |
| 12 | Cn1c(Nc2nc3ccccc3o2)nc2cc(C(=O)NCCOCC(=O)O)ccc21 [Example 29, 2-(2-(2-(benzo[d]oxazol-2-ylamino)-1-methyl-1H-benzo[d]imidazole-5-carboxamido)ethoxy)acetic acid] |
| 25-29 | Cn1c(Nc2nc3ccc(C(F)(F)F)cc3o2)nc2cc(C(=O)O)ccc21 [Example 31, 1-methyl-2-((6-(trifluoromethyl)benzo[d]oxazol-2-yl)amino)-1H-benzo[d]imidazole-5-carboxylic acid] |
| 14-50 | COCCNC(=O)c1ccc2c(c1)nc(Nc1nc3ccc(C(F)(F)F)cc3o1)n2C [Example 32, N-(2-methoxyethyl)-1-methyl-2-((6-(trifluoromethyl)benzo[d]oxazol-2-yl)amino)-1H-benzo[d]imidazole-5-carboxamide] |
| 32-45 | Cn1c(Nc2nc3ccc(C(F)(F)F)cc3o2)nc2cc(C(=O)NCCO)ccc21 [Example 33, N-(2-hydroxyethyl)-1-methyl-2-((6-(trifluoromethyl)benzo[d]oxazol-2-yl)amino)-1H-benzo[d]imidazole-5-carboxamide] |
| 31-36 | Cn1c(Nc2nc3ccc(C(F)(F)F)cc3o2)nc2cc(C(=O)NCCOCCO)ccc21 [Example 34, N-(2-(2-hydroxyethoxy)ethyl)-1-methyl-2-((6-(trifluoromethyl)benzo[d]oxazol-2-yl)amino)-1H-benzo[d]imidazole-5-carboxamide] |
| 37 | CC(O)CNC(=O)c1ccc2c(c1)nc(Nc1nc3ccc(C(F)(F)F)cc3o1)n2C (centres unmarked) [Example 35, N-(2-hydroxypropyl)-1-methyl-2-((6-(trifluoromethyl)benzo[d]oxazol-2-yl)amino)-1H-benzo[d]imidazole-5-carboxamide] |
| 42 | Cn1c(Nc2nc3ccc(C(F)(F)F)cc3o2)nc2cc(C(=O)NCCN3CCCC3)ccc21 [Example 36, 1-methyl-N-(2-(pyrrolidin-1-yl)ethyl)-2-((6-(trifluoromethyl)benzo[d]oxazol-2-yl)amino)-1H-benzo[d]imidazole-5-carboxamide] |
| 28 | Cn1c(Nc2nc3ccc(C(F)(F)F)cc3o2)nc2cc(C(=O)NCCN3CCCCC3)ccc21 [Example 37, 1-methyl-N-(2-(piperidin-1-yl)ethyl)-2-((6-(trifluoromethyl)benzo[d]oxazol-2-yl)amino)-1H-benzo[d]imidazole-5-carboxamide] |
| 30 | CC(O)COCCNC(=O)c1ccc2c(c1)nc(Nc1nc3ccc(C(F)(F)F)cc3o1)n2C (centres unmarked) [Example 38, N-(2-(2-hydroxypropoxy)ethyl)-1-methyl-2-((6-(trifluoromethyl)benzo[d]oxazol-2-yl)amino)-1H-benzo[d]imidazole-5-carboxamide] |
| 56-82 | Cn1c(Nc2nc3ccc(C(F)(F)F)cc3o2)nc2cc(C(=O)NCC(O)CO)ccc21 (centres unmarked) [Example 39, N-(2,3-dihydroxypropyl)-1-methyl-2-((6-(trifluoromethyl)benzo[d]oxazol-2-yl)amino)-1H-benzo[d]imidazole-5-carboxamide] |
| 56-93 | CN(C)CC(=O)NCCNC(=O)c1ccc2c(c1)nc(Nc1nc3ccc(C(F)(F)F)cc3o1)n2C [Example 40, N-(2-(2-(dimethylamino)acetamido)ethyl)-1-methyl-2-((6-(trifluoromethyl)benzo[d]oxazol-2-yl)amino)-1H-benzo[d]imidazole-5-carboxamide] |
| 35-39 | Cn1c(Nc2nc3ccc(C(F)(F)F)cc3o2)nc2cc(C(=O)NCCOCC(=O)O)ccc21 [Example 41, 2-(2-(1-methyl-2-((6-(trifluoromethyl)benzo[d]oxazol-2-yl)amino)-1H-benzo[d]imidazole-5-carboxamido)ethoxy)acetic acid] |
| 39 | Cn1c(Nc2nc3ccc(C(F)(F)F)cc3o2)nc2cc(C(=O)NCCOCC(C)(C)O)ccc21 [Example 42, N-(2-(2-hydroxy-2-methylpropoxy)ethyl)-1-methyl-2-((6-(trifluoromethyl)benzo[d]oxazol-2-yl)amino)-1H-benzo[d]imidazole-5-carboxamide] |
| 56 | Cn1c(Nc2nc3cc(C(F)(F)F)ccc3o2)nc2cc(C(=O)NCCOCCO)ccc21 [Example 43, N-(2-(2-hydroxyethoxy)ethyl)-1-methyl-2-((5-(trifluoromethyl)benzo[d]oxazol-2-yl)amino)-1H-benzo[d]imidazole-5-carboxamide] |
| 10-28 | COCCNC(=O)c1ccc2c(c1)nc(Nc1nc3ccc(OC(F)(F)F)cc3o1)n2C [Example 45, N-(2-methoxyethyl)-1-methyl-2-((6-(trifluoromethoxy)benzo[d]oxazol-2-yl)amino)-1H-benzo[d]imidazole-5-carboxamide] |
| 14-20 | Cn1c(Nc2nc3ccc(OC(F)(F)F)cc3o2)nc2cc(C(=O)Nc3cn[nH]c3)ccc21 [Example 46, 1-methyl-N-(1H-pyrazol-4-yl)-2-((6-(trifluoromethoxy)benzo[d]oxazol-2-yl)amino)-1H-benzo[d]imidazole-5-carboxamide] |
| 13-16 | Cn1c(Nc2nc3ccc(OC(F)(F)F)cc3o2)nc2cc(C(=O)NC(CO)(CO)CO)ccc21 [Example 47, N-(1,3-dihydroxy-2-(hydroxymethyl)propan-2-yl)-1-methyl-2-((6-(trifluoromethoxy)benzo[d]oxazol-2-yl)amino)-1H-benzo[d]imidazole-5-carboxamide] |
| 13-20 | Cn1c(Nc2nc3ccc(OC(F)(F)F)cc3o2)nc2cc(C(=O)NC(CO)CO)ccc21 [Example 48, N-(1,3-dihydroxypropan-2-yl)-1-methyl-2-((6-(trifluoromethoxy)benzo[d]oxazol-2-yl)amino)-1H-benzo[d]imidazole-5-carboxamide] |
| 14-23 | CN(C)CC(=O)NCCNC(=O)c1ccc2c(c1)nc(Nc1nc3ccc(OC(F)(F)F)cc3o1)n2C [Example 49, N-(2-(2-(dimethylamino)acetamido)ethyl)-1-methyl-2-((6-(trifluoromethoxy)benzo[d]oxazol-2-yl)amino)-1H-benzo[d]imidazole-5-carboxamide] |
| 12-18 | Cn1cc(NC(=O)c2ccc3c(c2)nc(Nc2nc4ccc(OC(F)(F)F)cc4o2)n3C)cn1 [Example 50, 1-methyl-N-(1-methyl-1H-pyrazol-4-yl)-2-((6-(trifluoromethoxy)benzo[d]oxazol-2-yl)amino)-1H-benzo[d]imidazole-5-carboxamide] |
| 30-57 | Cn1c(Nc2nc3ccc(OC(F)(F)F)cc3o2)nc2cc(C(=O)NC3COC3)ccc21 [Example 51, 1-methyl-N-(oxetan-3-yl)-2-((6-(trifluoromethoxy)benzo[d]oxazol-2-yl)amino)-1H-benzo[d]imidazole-5-carboxamide] |
| 27 | Cn1c(Nc2nc3ccc(OC(F)(F)F)cc3o2)nc2cc(C(=O)NCC3(O)COC3)ccc21 [Example 52, N-((3-hydroxyoxetan-3-yl)methyl)-1-methyl-2-((6-(trifluoromethoxy)benzo[d]oxazol-2-yl)amino)-1H-benzo[d]imidazole-5-carboxamide] |
